Measured values published in PubChem BioAssay (NCI).
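How tested: cells in 96-well plates exposed to compound for 48 hours at five concentrations. At the TGI there is no net growth.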

Assays:
Assay in all cases: growth of human tumour cells (NCI), 48 h
[1] = system: SF-539 CNS
[2] = system: DLD-1 colon
[3] = system: NCI-H460 lung
[4] = system: SF-295 CNS
[5] = system: SW-620 colon
[6] = system: U251 CNS
[7] = system: UACC-257 melanoma
[8] = system: EKVX NSCLC
[9] = system: XF 498 CNS
[10] = system: RPMI-8226 leukemia
[11] = system: UACC-62 melanoma
[12] = system: M14 melanoma
[13] = system: SNB-75 CNS
[14] = system: MOLT-4 leukemia
[15] = system: KM12 colon
[16] = system: KM20L2 colon
[17] = system: SF-268 CNS
[18] = system: NCI-H226 lung
[19] = system: SK-MEL-2 melanoma
[20] = system: OVCAR-3 ovarian
[21] = system: LOX IMVI melanoma
[22] = system: ACHN renal
[23] = system: OVCAR-5 ovarian
[24] = system: MALME-3M melanoma
[25] = system: CCRF-CEM leukemia
[26] = system: DMS 114 small cell lung
[27] = system: M19-MEL melanoma
[28] = system: CAKI-1 renal
[29] = system: OVCAR-4 ovarian
[30] = system: DMS 273 small cell lung
[31] = system: UO-31 renal
[32] = system: SNB-19 CNS
[33] = system: HOP-92 NSCLC
[34] = system: HL-60(TB) leukemia
[35] = system: NCI-H522 lung
[36] = system: A498 renal
[37] = system: HCC-2998 colon
[38] = system: TK-10 renal
[39] = system: HT29 colon
[40] = system: SR leukemia
[41] = system: 786-0 renal
[42] = system: OVCAR-8 ovarian
[43] = system: SK-MEL-5 melanoma
[44] = system: HOP-18 NSCLC
[45] = system: NCI-H23 lung
[46] = system: SK-MEL-28 melanoma
[47] = system: HCT-116 colon
[48] = system: RXF 393 renal
[49] = system: K-562 leukemia
[50] = system: HCT-15 colon
[51] = system: SN12C renal
[52] = system: LXFL 529 NSCLC
[53] = system: A549 NSCLC
[54] = system: SNB-78 CNS
[55] = system: COLO 205 colon
[56] = system: SK-OV-3 ovarian
[57] = system: IGROV1 ovarian
[58] = system: HOP-62 NSCLC

Cn1c(=O)c2nc(-c3ccc(Cl)cc3)oc2n(C)c1=O was tested, and the TGI [1] was over 100 µM, the TGI [2] was over 100 µM and the TGI [3] was over 100 µM. The TGI [4] was over 100 µM, the TGI [5] was over 100 µM and the TGI [6] was over 100 µM. It also gave a TGI [7] of over 100 µM, a TGI [8] of over 100 µM and a TGI [9] of over 100 µM. For the same compound, the TGI [10] was over 100 µM, the TGI [11] was over 100 µM and the TGI [12] was over 100 µM. For the same compound, the TGI [13] was over 100 µM, the TGI [14] was over 100 µM and the TGI [15] was over 100 µM. For the same compound, the TGI [16] was over 100 µM, the TGI [17] was over 100 µM and the TGI [18] was over 100 µM. The TGI [19] was over 100 µM, the TGI [20] was over 100 µM and the TGI [21] was over 100 µM. The TGI [22] was over 100 µM, the TGI [23] was over 100 µM and the TGI [24] was over 100 µM. It also gave a TGI [25] of over 100 µM, a TGI [26] of over 100 µM and a TGI [27] of over 100 µM. The TGI [28] was over 100 µM, the TGI [29] was over 100 µM and the TGI [30] was over 100 µM. The TGI [31] was over 100 µM, the TGI [32] was over 100 µM and the TGI [33] was over 100 µM. It also gave a TGI [34] of over 100 µM, a TGI [35] of over 100 µM and a TGI [36] of over 100 µM. For the same compound, the TGI [37] was over 100 µM, the TGI [38] was over 100 µM and the TGI [39] was over 100 µM. For the same compound, the TGI [40] was over 100 µM, the TGI [41] was over 100 µM and the TGI [42] was over 100 µM. The TGI [43] was over 100 µM, the TGI [44] was over 100 µM and the TGI [45] was over 100 µM. The TGI [46] was over 100 µM, the TGI [47] was over 100 µM and the TGI [48] was over 100 µM. It also gave a TGI [49] of over 100 µM, a TGI [50] of over 100 µM and a TGI [51] of over 100 µM. For the same compound, the TGI [52] was over 100 µM, the TGI [53] was over 100 µM and the TGI [54] was over 100 µM.

For O=C1C(Cl)C(c2ccccc2O)N1n1cnc2ccccc2c1=O (centres undefined), the TGI [2] was over 100 µM, the TGI [55] was over 100 µM and the TGI [3] was over 100 µM. It also gave a TGI [4] of over 100 µM, a TGI [5] of over 100 µM and a TGI [6] of over 100 µM. For the same compound, the TGI [7] was over 100 µM, the TGI [8] was 88.5 µM and the TGI [9] was 17.9 µM. It also gave a TGI [10] of over 100 µM, a TGI [56] of over 100 µM and a TGI [11] of over 100 µM. For the same compound, the TGI [12] was over 100 µM, the TGI [13] was 49.6 µM and the TGI [14] was over 100 µM. For the same compound, the TGI [15] was over 100 µM, the TGI [16] was over 100 µM and the TGI [17] was over 100 µM. The TGI [18] was over 100 µM, the TGI [19] was over 100 µM and the TGI [20] was over 100 µM. It also gave a TGI [57] of over 100 µM, a TGI [21] of over 100 µM and a TGI [22] of over 100 µM. It also gave a TGI [23] of over 100 µM, a TGI [24] of over 100 µM and a TGI [25] of over 100 µM. For the same compound, the TGI [26] was 81.4 µM, the TGI [27] was over 100 µM and the TGI [28] was over 100 µM. The TGI [29] was over 100 µM, the TGI [30] was over 100 µM and the TGI [31] was over 100 µM. For the same compound, the TGI [32] was over 100 µM, the TGI [34] was over 100 µM and the TGI [35] was 93.8 µM. It also gave a TGI [37] of over 100 µM, a TGI [38] of over 100 µM and a TGI [39] of over 100 µM. For the same compound, the TGI [40] was over 100 µM, the TGI [41] was over 100 µM and the TGI [42] was over 100 µM. The TGI [43] was over 100 µM, the TGI [44] was over 100 µM and the TGI [45] was over 100 µM. For the same compound, the TGI [46] was over 100 µM, the TGI [47] was over 100 µM and the TGI [48] was 95.7 µM. For the same compound, the TGI [58] was over 100 µM, the TGI [49] was over 100 µM and the TGI [50] was 15.1 µM. For the same compound, the TGI [51] was 20.4 µM, the TGI [52] was over 100 µM and the TGI [53] was over 100 µM. For the same compound, the TGI [54] was over 100 µM.
